Measurements reported in patent US8937078B2, “Quinazolinones as prolyl hydroxylase inhibitors” (Janssen Pharmaceutica NV, priority 2009, dated 2015).

Legend:
[1] = molecular target: T1, human PHD2 (PHD2181-417) (Homo sapiens, UniProt Q9GZT9); test: PHD enzymatic assay ([14C]-succinic acid production); type: biochemical; conditions: PHD2181-417, HIF-1α peptide 10 μM, average of results; read-out: Enzyme pIC50 (converted)
T1 construct: Smt (SUMO) tag (cleaved yes); made in house; host or cells: E. coli BL21 (pBAD vector)
Description: Protein production was achieved by expression in BL21 cells grown in Terrific Broth containing 100 μg/ml ampicillin. Cell cultures were inoculated at 37° C. and grown to an OD600 of 0.8. Cultures were induced with 0.1% arabinose and grown overnight at 20° C. with continuous shaking at 225 rpm. Cells were then harvested by centrifugation and stored at −80° C. Cell pellets were suspended in Buffer A (50 mM Tris-HCl pH 7.2, 100 mM NaCl, 100 mM L-arginine, 1 mM TCEP, 0.05% (w/v) NP-40, 50 mM imidazole) followed by the addition of lysozyme and benzonase. Cells were lysed by sonication and the lysate was cleared by centrifugation (15,000 rpm, 90 min, 4° C.). The protein was purified by nickel affinity chromatography using a HisTrap Crude FF column (GE Healthcare). Samples were eluted in Buffer A with a 50-200 mM imidazole gradient. […] The flow-through was then dialyzed into 50 mM MES pH 6.0, 1 mM TCEP, 5 mM NaCl for ion exchange chromatography on a HiTrap SP Cation Exchange column (GE Healthcare). […] Fractions were pooled for further purification by size exclusion chromatography over a Superdex 75 Size Exclusion Column (GE Healthcare). Final protein was concentrated to 4 mg/ml and dialyzed in 10 mM PIPES pH 7.0, 100 mM NaCl, 0.5 mM TCEP.
(10 μM, California Peptide Research Inc., Napa, Calif.), and [5-^14C]-2-oxoglutaric acid (50 mCi/mmol, Moravek Chemicals, Brea, Calif.) in reaction buffer (40 mM Tris-HCl, pH 7.5, 0.4 mg/ml catalase, 0.5 mM DTT, 1 mM ascorbate) for 10 minutes. The reaction was stopped by addition of 50 μl of 70 mM H3PO4 and 50 μl of 500 mM NaH2PO4, pH3.2. Detection of [^14C]-succinic acid was achieved by separating from [5-^14C]-2-oxoglutaric acid by incubating the reaction mixture with 100 μl of 0.16 M DNP prepared in 30% perchloric acid. Next, 50 μl of unlabeled 20 mM 2-oxoglutaric acid/20 mM succinic acid, serving as carrier for the radioactivity, was added to the mixture, and was allowed to proceed for 30 minutes at room temperature. The reaction was then incubated with 50 μl of 1 M 2-oxoglutaric acid for 30 additional minutes at room temperature to precipitate the excess DNP. The reaction was then centrifuged at 2800×g for 10 minutes at room temperature to separate [^14C]-succinic acid in the supernatant from the precipitated [^14C]-dinitrophenylhydrazone. Fractions of the supernatant (400 μl) were counted using a beta counter (Beckman Coulter, Fullerton, Calif.).

[2] = tested on: Hep-3B cells; test: Cellular assay: erythropoietin secretion in Hep-3B cells; type: cell-based, human; conditions: Homo sapiens, Hep3B, 100 μM compound, 24 hours, percent of EPO secretion relative to assay control compound 7-[(4-Chloro-phenyl)-(5-methyl-isoxazol-3-ylamino)-methyl]-quinolin-8-ol, read-out: Cellular % EPO Stimulation
Description: Hep-3B cells (ATCC, Manassas, Va.) were plated in 96-well plates at 20,000 cells per well in 100 μl of DMEM containing 10% fetal bovine serum, 1% non-essential amino acids, 50 IU/mL of penicillin and 50 μg/mL of streptomycin (all cell culture reagents from Invitrogen, Carlsbad, Calif.). Twenty-four hours after plating, compounds were added and incubated for an additional 24 hours. All compounds were tested under saturating conditions with final compound concentrations at 100 μM. Fifty microliters of the supernatant was then transferred to a human Hypoxia assay kit (Meso-Scale Discovery, Gaithersburg, Md.). Erythropoietin in the supernatant was detected according to the manufacturer's instructions as follows. EPO detection plates were blocked with 3% BSA in PBS overnight and 50 μl of the supernatant was incubated at room temperature in an orbital shaker for 2 h. Twenty-five microliters of 0.5 μg/ml anti-EPO detection antibody was added for 2 hours at room temperature in an orbital shaker. After 3 washes in PBS, 150 μl of 1× read buffer is added and the plate is then read on the MSD SECTOR instrument.

T1 sequence (Q9GZT9 181-417): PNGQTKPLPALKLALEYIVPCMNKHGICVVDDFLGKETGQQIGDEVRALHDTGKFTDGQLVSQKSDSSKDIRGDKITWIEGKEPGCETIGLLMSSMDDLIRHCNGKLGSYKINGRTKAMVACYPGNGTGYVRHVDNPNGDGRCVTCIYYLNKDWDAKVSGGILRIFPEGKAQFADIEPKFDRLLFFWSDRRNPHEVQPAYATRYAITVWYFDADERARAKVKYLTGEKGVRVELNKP

SMILES	IC50 [1]	Emax at 100 µM [2]
O=C(O)c1cnn(-c2nc3c4c(ccc3c(=O)[nH]2)CCCC4)c1 [Example 142, 1-(4-Oxo-3,4,7,8,9,10-hexahydro-benzo[h]quinazolin-2-yl)-1H-pyrazole-4-carboxylic acid]	251 nM	23%
O=C(O)c1cnn(-c2nc3c(Br)cccc3c(=O)[nH]2)c1 [Example 11, 1-(8-Bromo-4-oxo-3,4-dihydro-quinazolin-2-yl)-1H-pyrazole-4-carboxylic acid]	158 nM	40%
COc1cccc(-c2ccc3nc(-n4cc(C(=O)O)cn4)[nH]c(=O)c3c2)c1 [Example 199, 1-[6-(3-Methoxy-phenyl)-4-oxo-3,4-dihydro-quinazolin-2-yl]-1H-pyrazole-4-carboxylic acid]	25.1 nM	119%
O=C(O)c1cnn(-c2nc3ccc(I)cc3c(=O)[nH]2)c1 [Example 12, 1-(6-Iodo-4-oxo-3,4-dihydro-quinazolin-2-yl)-1H-pyrazole-4-carboxylic acid]	25.1 nM	50%
O=C(O)c1cnn(-c2nc3ccc(NC(=O)c4ccccc4)cc3c(=O)[nH]2)c1 [Example 165, 1-(6-Benzoylamino-4-oxo-3,4-dihydro-quinazolin-2-yl)-1H-pyrazole-4-carboxylic acid]	25.1 nM	19%
O=C(O)c1cnn(-c2nc3cc(S(=O)(=O)c4ccc(Cl)cc4)ccc3c(=O)[nH]2)c1 [Example 82, 1-[7-(4-Chloro-benzenesulfonyl)-4-oxo-3,4-dihydro-quinazolin-2-yl]-1H-pyrazole-4-carboxylic acid]	63.1 nM	15%
COc1ccc2c(=O)[nH]c(-n3cc(C(=O)O)cn3)nc2c1 [Example 135, 1-(7-Methoxy-4-oxo-3,4-dihydro-quinazolin-2-yl)-1H-pyrazole-4-carboxylic acid]	79.4 nM	17%
O=C(O)c1cnn(-c2nc3ccc(Oc4ccccc4F)cc3c(=O)[nH]2)c1 [Example 33, 1-[6-(2-Fluoro-phenoxy)-4-oxo-3,4-dihydro-quinazolin-2-yl]-1H-pyrazole-4-carboxylic acid]	31.6 nM	56%
COc1cccc2c(=O)[nH]c(-n3cc(C(=O)O)cn3)nc12 [Example 7, 1-(8-Methoxy-4-oxo-3,4-dihydro-quinazolin-2-yl)-1H-pyrazole-4-carboxylic acid]	158 nM	25%
O=C(O)c1cnn(-c2nc3ccc(F)cc3c(=O)[nH]2)c1 [Example 4, 1-(6-Fluoro-4-oxo-3,4-dihydro-quinazolin-2-yl)-1H-pyrazole-4-carboxylic acid]	39.8 nM	15%
Cc1cccc(C)c1Oc1c(F)cc2nc(-n3cc(C(=O)O)cn3)[nH]c(=O)c2c1F [Example 63, 1-[6-(2,6-Dimethyl-phenoxy)-5,7-difluoro-4-oxo-3,4-dihydro-quinazolin-2-yl]-1H-pyrazole-4-carboxylic acid]	20 nM	14%
Cc1ccc2nc(-n3cc(C(=O)O)cn3)[nH]c(=O)c2c1 [Example 8, 1-(6-Methyl-4-oxo-3,4-dihydro-quinazolin-2-yl)-1H-pyrazole-4-carboxylic acid]	39.8 nM	14%
O=C(O)c1cnn(-c2nc3ccc(-c4cccc(OC(F)(F)F)c4)cc3c(=O)[nH]2)c1 [Example 205, 1-[4-Oxo-6-(3-trifluoromethoxy-phenyl)-3,4-dihydro-quinazolin-2-yl]-1H-pyrazole-4-carboxylic acid]	25.1 nM	58%
O=C(O)c1cnn(-c2nc3c(Cl)cccc3c(=O)[nH]2)c1 [Example 14, 1-(8-Chloro-4-oxo-3,4-dihydro-quinazolin-2-yl)-1H-pyrazole-4-carboxylic acid]	251 nM	8%
O=C(O)c1cnn(-c2nc3cc(Sc4ccccc4Cl)ccc3c(=O)[nH]2)c1 [Example 80, 1-[7-(2-Chloro-phenylsulfanyl)-4-oxo-3,4-dihydro-quinazolin-2-yl]-1H-pyrazole-4-carboxylic acid]	31.6 nM	5%
